From ChEMBL document CHEMBL1201862, “PubChem BioAssay data set” (2004)
“And” between values parts separate entries of the source, which are not always exact repeats. Identical values can stand only once.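 A five-concentration, 48-hour dose response in 96-well plates underlies each endpoint, interpolated linearly between surrounding concentrations. Here, GI50 denotes the concentration required for 50% inhibition of growth.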 The source made the active and inactive calls. Rule as the data show it: active = GI50 up to about 1.1 µM and inactive = higher.

Columns and labels:
Assay in all cases: NCI tumour cell line growth inhibition, 48 h
ACHN = tested on: ACHN
COLO 205 = tested on: COLO 205
HCT-116 = tested on: HCT-116
HL-60 = tested on: HL-60
HT-29 = tested on: HT-29
KM12 = tested on: KM12
Malme-3M = tested on: Malme-3M
NCI-H522 = tested on: NCI-H522
OVCAR-5 = tested on: OVCAR-5
RPMI-8226 = tested on: RPMI-8226
SK-MEL-28 = tested on: SK-MEL-28
UACC-257 = tested on: UACC-257
UO-31 = tested on: UO-31
MCF7 = tested on: MCF7
MDA-MB-435 = tested on: MDA-MB-435
MDA-N = tested on: MDA-N
NCI/ADR-RES = tested on: NCI/ADR-RES
BT-549 = tested on: BT-549
T47D = tested on: T47D

Measured: GI50

COC1(OC)CCCCC2c3cccc(OC(C)=O)c3C21OC(C)=O (stereo unspecified)
inactive: ACHN 78.9 µM | COLO 205 > 100 µM | HCT-116 57.9 µM | HL-60 65.8 µM | HT-29 > 100 µM | KM12 > 100 µM | Malme-3M > 100 µM | NCI-H522 > 100 µM | OVCAR-5 > 100 µM | RPMI-8226 54 µM | SK-MEL-28 > 100 µM | UACC-257 > 100 µM | UO-31 51.6 µM

COC(=O)C1C(=O)N(CCc2c[nH]c3ccccc23)C[C@@H]2CCC(=O)C[C@H]12 (stereo partly specified)
inactive: COLO 205 > 100 µM | HCT-116 > 100 µM | HL-60 > 100 µM | HT-29 > 100 µM | KM12 > 100 µM | Malme-3M > 100 µM | NCI-H522 > 100 µM | RPMI-8226 > 100 µM | SK-MEL-28 > 100 µM | UACC-257 > 100 µM | UO-31 > 100 µM

C=CCC(NCc1ccccc1)[C@H](OCc1ccccc1)[C@@H]1COC(C)(C)O1 (stereo partly specified)
inactive: ACHN 42.6 µM | COLO 205 14.5 µM | HCT-116 23.7 µM | HT-29 11.7 µM | KM12 29.8 µM | MCF7 29.4 µM | MDA-MB-435 36.1 µM | MDA-N 31.8 µM | Malme-3M 22.6 µM | NCI/ADR-RES 46.8 µM | OVCAR-5 46.2 µM | RPMI-8226 18.5 µM | SK-MEL-28 47.1 µM | UACC-257 22.9 µM | UO-31 22.9 µM

COC(=O)C(Cc1nc2ccccc2nc1O)C(NO)C(=O)Nc1c(Cl)cc([N+](=O)[O-])cc1Cl (stereo unspecified)
inactive: ACHN 35.6 µM | COLO 205 46.2 µM | HCT-116 22.3 µM | HT-29 35.2 µM | KM12 33.7 µM | Malme-3M 47.5 µM | NCI-H522 15.5 µM | RPMI-8226 34.7 µM | SK-MEL-28 30.9 µM | UACC-257 27.7 µM | UO-31 36.1 µM

CCOC(=O)c1cc(-c2cc(OC)c(OC)c([N+](=O)[O-])c2)c([N+](=O)[O-])n1C
inactive: ACHN 9.04 µM | BT-549 > 10 µM | HCT-116 5.33 µM | HL-60 3.37 µM | HT-29 3.18 µM | KM12 4 µM | MDA-MB-435 2.04 µM | Malme-3M 8.02 µM | NCI-H522 4.13 µM | NCI/ADR-RES 3.94 µM | OVCAR-5 > 10 µM | UACC-257 3.02 µM | UO-31 > 10 µM

CN1CCN(c2nc3ccccc3nc2C(=O)c2ccc(Cl)cc2)CC1
inactive: ACHN > 100 µM | COLO 205 35.8 µM | HCT-116 35.2 µM | HL-60 31 µM | HT-29 38.2 µM | KM12 35.1 µM | MCF7 27.7 µM | MDA-MB-435 44.5 µM | MDA-N 36.9 µM | Malme-3M 16.7 µM | NCI-H522 38.1 µM | NCI/ADR-RES 54.5 µM | OVCAR-5 > 100 µM | RPMI-8226 22.2 µM | SK-MEL-28 50.7 µM | T47D 45.6 µM | UACC-257 36.1 µM | UO-31 31 µM

COc1ccc(/N=N/c2ccc3oc(=O)c(C(=O)Nc4ccccc4C)cc3c2)cc1
inactive: ACHN 8.3 µM | COLO 205 > 10 µM | HT-29 > 10 µM | KM12 > 10 µM | MCF7 > 10 µM | MDA-MB-435 > 10 µM | MDA-N > 10 µM | Malme-3M > 10 µM | NCI-H522 > 10 µM | NCI/ADR-RES > 10 µM | OVCAR-5 > 10 µM | RPMI-8226 > 10 µM | SK-MEL-28 > 10 µM | T47D > 10 µM | UACC-257 > 10 µM | UO-31 > 10 µM

CNC(=S)N/N=C(C)\C(=N/NC(=S)NC)c1ccccc1
inactive: ACHN 19.9 µM | BT-549 > 100 µM | COLO 205 55.5 µM | HCT-116 31.6 µM | KM12 64.9 µM | MCF7 82.8 µM | MDA-N 89.7 µM | Malme-3M 76.7 µM | NCI-H522 28.9 µM | NCI/ADR-RES 39.3 µM | OVCAR-5 > 100 µM | UACC-257 > 100 µM | UO-31 30.7 µM

N#Cc1nc(C(F)(F)F)oc1N
inactive: ACHN > 100 µM | COLO 205 > 100 µM | HCT-116 > 100 µM | HL-60 > 100 µM | HT-29 > 100 µM | KM12 > 100 µM | MCF7 > 100 µM | MDA-MB-435 > 100 µM | MDA-N > 100 µM | Malme-3M > 100 µM | NCI-H522 66.1 µM | NCI/ADR-RES > 100 µM | OVCAR-5 > 100 µM | RPMI-8226 > 100 µM | SK-MEL-28 > 100 µM | T47D > 100 µM | UACC-257 > 100 µM | UO-31 > 100 µM

NCCCNCCSSC/C=C\CSSCCNCCCN
inactive: ACHN > 100 µM | COLO 205 29.5 µM and 45.6 µM | HL-60 16.6 µM and 19.2 µM | HT-29 14.2 µM and 15.3 µM | KM12 17.7 µM and 18.9 µM | Malme-3M 78 µM | NCI-H522 10.3 µM and 13.2 µM | OVCAR-5 > 100 µM | RPMI-8226 26.9 µM and 28.6 µM | SK-MEL-28 > 100 µM | UACC-257 30.9 µM and 17.1 µM | UO-31 65 µM and 63.4 µM

COc1ccc(Nc2nc3ccccc3nc2-c2cccs2)cc1OC
inactive: ACHN > 10 µM | COLO 205 > 10 µM | HCT-116 > 10 µM | HL-60 > 10 µM | HT-29 > 10 µM | KM12 > 10 µM | MCF7 > 10 µM | MDA-MB-435 > 10 µM | MDA-N > 10 µM | NCI-H522 > 10 µM | NCI/ADR-RES > 10 µM | OVCAR-5 > 10 µM | RPMI-8226 > 10 µM | SK-MEL-28 > 10 µM | T47D > 10 µM | UACC-257 > 10 µM | UO-31 > 10 µM

CC(=O)NCc1nc(C#N)c(N)o1
inactive: ACHN > 100 µM | COLO 205 > 100 µM | HCT-116 > 100 µM | HL-60 > 100 µM | HT-29 > 100 µM | KM12 > 100 µM | MCF7 > 100 µM | MDA-MB-435 > 100 µM | MDA-N > 100 µM | Malme-3M > 100 µM | NCI-H522 > 100 µM | NCI/ADR-RES > 100 µM | OVCAR-5 > 100 µM | RPMI-8226 > 100 µM | SK-MEL-28 > 100 µM | T47D > 100 µM | UACC-257 > 100 µM | UO-31 > 100 µM

c1ccc(-n2nc3ccc4nonc4c3n2)cc1
inactive: ACHN > 100 µM | COLO 205 > 100 µM | HCT-116 > 100 µM | HL-60 > 100 µM | HT-29 > 100 µM | KM12 > 100 µM | MCF7 > 100 µM | MDA-MB-435 > 100 µM | MDA-N > 100 µM | Malme-3M > 100 µM | NCI/ADR-RES > 100 µM | OVCAR-5 > 100 µM | RPMI-8226 > 100 µM | SK-MEL-28 > 100 µM | T47D > 100 µM | UACC-257 > 100 µM
